test system: KM12-luc cells; experiment: Cell proliferation and growth inhibition assay (CCK-8) in KM12-luc; type: cell-based; conditions: KM12-Luc, 72 h, KM12-luc cells, treated with test compounds for 72 hrs, CCK-8 viability; read-out: NTRK IC50 in KM12-luc
In short: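 IC50 values were fitted by sigmoidal dose-response non-linear regression of CCK-8 OD450 absorbance after 1-4 hrs with reagent. Culture media were IMDM for MV-4-11, RPMI 1640 for H1975 and DMEM for KM12-luc, each with 10% FBS at 37 °C, 5% CO2.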

Row | SMILES | IC50
1 | CC(=O)Nc1cc(Nc2ncc(Cl)c(-c3cn(C)c4ccccc34)n2)ccc1N(C)CCN(C)C [Compound 395, N-(5-((5-chloro-4-(1-methyl-1H-indol-3-yl)pyrimidin-2-yl)amino)-2-((2-(dimethylamino)ethyl)(methyl)amino)phenyl)acetamide] | 77.3 nM
2 | CC(=O)Nc1cc(Nc2ncc(C(F)(F)F)c(-c3cn(C)c4c(F)cccc34)n2)ccc1N(CCN(C)C)C(C)=O [Compound 350, N-(2-acetamido-4-((4-(7-fluoro-1-methyl-1H-indol-3-yl)-5-(trifluoromethyl)pyrimidin-2-yl)amino)phenyl)-N-(2-(dimethylamino)ethyl)acetamide] | 126 nM
3 | CN(C)CCN(C)c1ccc(C(=O)Nc2c[nH]c3ccc(Nc4cc(F)cc(F)c4)cc23)c(NC2CCOCC2)c1 [Compound 500, N-(5-((3,5-difluorophenyl)amino)-1H-indol-3-yl)-4-((2-(dimethylamino)ethyl)(methyl)amino)-2-((tetrahydro-2H-pyran-4-yl)amino)benzamide] | 3570 nM
4 | CNc1cc(Nc2ncc(OC)c(-c3cn(-c4ncc(OC)c(-c5c[nH]c6ccccc56)n4)c4ccccc34)n2)ccc1N(C)CCN(C)C [Compound 273b, N^4-(4-(1-(4-(1H-indol-3-yl)-5-methoxypyrimidin-2-yl)-1H-indol-3-yl)-5-methoxypyrimidin-2-yl)-N^1-(2-(dimethylamino)ethyl)-N^1,N^2-dimethylbenzene-1,2,4-triamine] | 3320 nM
5 | CN(C)[C@H]1CCN(c2ccc(Nc3ncc(Cl)c(-c4c[nH]c5c(F)cccc45)n3)cc2N)C1 [Compound S-414, (S)—N^1-(5-chloro-4-(7-fluoro-1H-indol-3-yl)pyrimidin-2-yl)-4-(3-(dimethylamino)pyrrolidin-1-yl)benzene-1,3-diamine] | 50.1 nM
6 | COc1cccc2c(-c3nc(Nc4ccc(N5CC[C@H](N(C)C)C5)c(N)c4)ncc3C(F)(F)F)cn(C)c12 [Compound S-390, (S)-4-(3-(dimethylamino)pyrrolidin-1-yl)-N^1-(4-(7-methoxy-1-methyl-1H-indol-3-yl)-5-(trifluoromethyl)pyrimidin-2-yl)benzene-1,3-diamine] | 44.6 nM
7 | CCN(CCN(C)C)c1ccc(Nc2nc(-c3cn(C)c4ccccc34)c3cc[nH]c3n2)cc1NCCF [Compound 212e, N^1-(2-(dimethylamino)ethyl)-N^1-ethyl-N^2-(2-fluoroethyl)-N^4-(4-(1-methyl-1H-indol-3-yl)-7H-pyrrolo[2,3-d]pyrimidin-2-yl)benzene-1,2,4-triamine] | 3360 nM
8 | CC(=O)Nc1cc(Nc2ncc(C(F)(F)F)c(-c3cn(C)c4cc(F)c(F)cc34)n2)ccc1N(C)CCN(C)C [Compound 355, N-(5-((4-(5,6-difluoro-1-methyl-1H-indol-3-yl)-5-(trifluoromethyl)pyrimidin-2-yl)amino)-2-((2-(dimethylamino)ethyl)(methyl)amino)phenyl)acetamide] | 70.4 nM
9 | Cc1cccc2c(-c3nc(Nc4ccc(N(C)CCN(C)C)c(N)c4)ncc3C(F)(F)F)cn(C)c12 [Compound 369, N^4-(4-(1,7-dimethyl-1H-indol-3-yl)-5-(trifluoromethyl)pyrimidin-2-yl)-N^1-(2-(dimethylamino)ethyl)-N^1-methylbenzene-1,2,4-triamine] | 27.6 nM
10 | CN(C)[C@H]1CCN(c2ccc(Nc3ncc(C(F)(F)F)c(-c4cn(C)c5c(F)cccc45)n3)cc2N)C1 [Compound S-354, (S)-4-(3-(dimethylamino)pyrrolidin-1-yl)-N^1-(4-(7-fluoro-1-methyl-1H-indol-3-yl)-5-(trifluoromethyl)pyrimidin-2-yl)benzene-1,3-diamine] | 56.3 nM
11 | CN(C)CCN(C)c1ccc(C(=O)Nc2c[nH]c3ccc(Cc4cc(F)cc(F)c4)cc23)c(NC2CCOCC2)c1 [Compound 507, N-(5-(3,5-difluorobenzyl)-1H-indol-3-yl)-4-(2-(dimethylamino)ethyl)(methylamino)-2-((tetrahydro-2H-pyran-4-yl)amino) benzamide] | > 1000 nM
12 | CC(=O)Nc1cc(Nc2nc(-c3cn(C)c4ccccc34)c3occc3n2)cc(F)c1N(C)CCN(C)C [Compound 256b, N-(2-((2-(dimethylamino)ethyl) (methyl)amino)-3-fluoro-5-((4-(1-methyl-1H-indol-3-yl)furo[3,2-d]pyrimidin-2-yl)amino)phenyl) acetamide] | 748 nM
13 | CN(C)CCN(C)c1ccc(Nc2nc(Oc3cccc(N)c3)c3cc[nH]c3n2)cc1 [Compound 184, N^1-(4-(3-aminophenoxy)-7H-pyrrolo[2,3-d]pyrimidin-2-yl)-N^4-(2-(dimethylamino)ethyl)-N^4-methylbenzene-1,4-diamine] | 407 nM
14 | CC(=O)Nc1cc(Nc2ncc(Cl)c(-c3cn(C)c4ccccc34)n2)cc(F)c1N(C)CCN(C)C [Compound 396, N-(5-((5-chloro-4-(1-methyl-1H-indol-3-yl)pyrimidin-2-yl)amino)-2-((2-(dimethylamino)ethyl)(methyl)amino)-3-fluorophenyl)acetamide] | 80.3 nM
15 | CC(=O)Nc1cc(Nc2ncc(C(F)(F)F)c(-c3cn(C)c4cccc(F)c34)n2)ccc1N(C)CCN(C)C [Compound 320, N-(2-((2-(dimethylamino)ethyl)(methyl)amino)-5-((4-(4-fluoro-1-methyl-1H-indol-3-yl)-5-(trifluoromethyl)pyrimidin-2-yl)amino)phenyl)acetamide] | 91.1 nM
16 | CC(=O)Nc1cc(Nc2ncc(C(F)(F)F)c(-c3c[nH]c4ccccc34)n2)ccc1OCCN(C)C [Compound 304, N-(5-((4-(1H-indol-3-yl)-5-(trifluoromethyl)pyrimidin-2-yl)amino)-2-(2-(dimethylamino)ethoxy)phenyl)acetamide] | 75.1 nM
17 | COc1cnc(Nc2ccc(N(CCN(C)C)C(C)=O)c(NC(C)=O)c2)nc1-c1c[nH]c2c(F)cccc12 [Compound 278, N-(2-acetamido-4-((4-(7-fluoro-1H-indol-3-yl)-5-methoxypyrimidin-2-yl)amino)phenyl)-N-(2-(dimethylamino)ethyl)acetamide] | 17.1 nM
18 | CCN(CCN(C)C)c1c(F)cc(Nc2nc(-c3cn(C)c4ccccc34)c3occc3n2)cc1NC(C)=O [Compound 256d, N-(2-((2-(dimethylamino)ethyl)(ethyl)amino)-3-fluoro-5-((4-(1-methyl-1H-indol-3-yl)furo[3,2-d]pyrimidin-2-yl)amino)phenyl)acetamide] | 1000 nM
19 | CN(C)CCN(C)c1ccc(Nc2nc(Oc3cccc(N)c3)c3cc[nH]c3n2)cc1F [Compound 180, N^4-(4-(3-aminophenoxy)-7H-pyrrolo[2,3-d]pyrimidin-2-yl)-N^1-(2-(dimethylamino)ethyl)-2-fluoro-N1-methylbenzene-1,4-diamine] | 3060 nM

same assay, conditions: KM12-Luc, 72 h, read-out: NTRK IC50 in KM12-luc

Row | SMILES | IC50
20 | CCNc1cc(Nc2nc(-c3cn(C)c4ccccc34)c3cc[nH]c3n2)ccc1N(CC)CCN(C)C [Compound 212f, N^1-(2-(dimethylamino)ethyl)-N^1,N^2-diethyl-N^4-(4-(1-methyl-1H-indol-3-yl)-7H-pyrrolo[2,3-d]pyrimidin-2-yl)benzene-1,2,4-triamine] | 546 nM

same assay, conditions: KM12-luc cells, treated with test compounds for 72 hrs, CCK-8 viability; read-out: NTRK IC50 in KM12-luc

Row | SMILES | IC50
21 | COc1cccc2c(-c3nc(Nc4ccc(N5CC[C@@H](N(C)C)C5)c(N)c4)ncc3Cl)cn(C)c12 [Compound R-439, (R)—N^1-(5-chloro-4-(7-methoxy-1-methyl-1H-indol-3-yl)pyrimidin-2-yl)-4-(3-(dimethylamino)pyrrolidin-1-yl)benzene-1,3-diamine] | 128 nM

Source: patent US20250136576A1, “Heterocyclic Compounds and Uses Thereof” (ACEA Therapeutics, Inc., priority 2021, published 2025)
